From patent US7205411B2, “Aminopyridine derivatives as mGluR5 antagonists” (Addex Pharmaceuticals SA, priority 2003, dated 2007) come the findings set out here.

Broadly, the melting point is the temperature of the solid-liquid transition.

SMILES strings stand for the structures. Where a name gives a salt, the structure may show the parent alone.

On to `Cc1ccc(N)c(C#Cc2cc(F)cc(F)c2)n1.Cl` [Example 7, (2-(3,5-Difluoro-phenylethynyl)-6-methyl-pyridin-3-yl)amine hydrochloride], for which the melting point was 212 °C (dec.). In turn, `Cc1cc(C)c(N)c(C#Cc2cccc(Cl)c2)n1` (as salt: hydrochloride) [Example 13, (2-(3-Chloro-phenylethynyl)-4.6-dimethyl-pyridin-3-yl)amine hydrochloride] gave a melting point of 204 °C. Next, `Cc1ccc(N)c(C#Cc2cccc(C#N)c2)n1.Cl`: 132.4 to 134 °C; `COc1cccc(C#Cc2nc(C)ccc2N)c1` [Example 4, (2-(3-Methoxy-phenylethynyl)-6-methyl-pyridin-3-yl)amine]: 165 to 166 °C; `Cc1ccc(N)c(C#Cc2cccc(Cl)c2)n1.Cl`: 195 °C (dec.). Turning to `Cc1ccc(N)c(C#Cc2cccc(F)c2)n1.Cl` [Example 3, (2-(3-Fluoro-phenylethynyl)-6-methyl-pyridin-3-yl)amine hydrochloride], the melting point was 199 to 200 °C (dec.).

With `Cc1ccc(N)c(C#Cc2ccc(F)cc2)n1.Cl`, the melting point is 122 °C (dec.). On to `Cc1ccc(N)c(C#Cc2cncc(Cl)c2)n1.Cl` [Example 10, (2-(5-Chloro-pyridin-3-ylethynyl)-6-methyl-pyridin-3-yl)amine hydrochloride], for which the melting point is 193 °C (dec.).
